Source: patent EP4124338A1, “SIGMA-1 RECEPTOR ACTIVATOR FOR USE IN THE TREATMENT OF A PATHOLOGY ASSOCIATED WITH WFS1 MUTATION” (Université de Montpellier, priority 2021, dated 2023)
Structures can show the parent of a compound that is named as a salt.

Legend:
[1] = tested on: Wfs1^ΔExon8 mice; experiment: Spontaneous alternation in the Y-maze (spatial working memory); format: in vivo; conditions: male Wfs1^ΔExon8 mice; PRE-084 0.3 mg/kg ip (legend b25; b84 says 1 mg/Kg) 30 min before the Y-maze session; Fig. 2
Description: (§1) Drugs and administration procedures: 2-(4-morpholinethyl)-1-phenylcyclohexanecarboxylate hydrochloride (PRE-084) was from Sigma-Aldrich (Saint-Quentin-Fallavier, France). […]
Spontaneous alternation in the Y-maze: The test assesses spatial working memory. The maze was made of grey polyvinylchloride. Each arm was 40 cm long, 13 cm high, 3 cm wide at the bottom, 10 cm wide at the top, and converging at an equal angle. Each mouse was placed at the end of one arm and allowed to move freely through the maze during an 8 min session. The series of arm entries, including possible returns into the same arm, was recorded visually. An alternation was defined as entries into all three arms on consecutive occasions. The number of maximum alternations was therefore the total number of arm entries minus two and the percentage of alternation was calculated as (actual alternations/maximum alternations) × 100. […] Thirteen animals were discarded accordingly corresponding to 26% attrition. […]

[2] = tested on: Wfs1^ΔExon8 mice; experiment: Object recognition test (short-term recognition memory); format: in vivo; conditions: male Wfs1^ΔExon8 mice
Description: as §1
Object recognition test: The test measures short-term recognition memory. The apparatus consisted in four squared open-fields (50 cm × 50 cm × 50 cm high) made in white Plexiglas and placed on a floor equipped with infrared (IR) light emitting diodes. The locomotor activity of the animal and position of their nose could be captured through an IR-sensitive camera and analyzed using the Videotrack® and Nosetrack® softwares (Viewpoint). Session 1: animals were allowed to acclimate during 10 min to the open-field. The mouse locomotion was analyzed by videotracking. […] Each mouse was placed in the open-field and the exploratory activity and nose position was recorded during 10 min. The activity was analyzed by videotracking in terms of number of contacts with the objects and duration of contacts. […] Each mouse was placed again in the open-field and the exploratory activity recorded during 10 min. The activity was analyzed similarly. The preferential exploration index was calculated as the ratio of the number of contacts with the object in position 2 over the total number of contacts with the two objects. […]

[3] = tested on: Wfs1^ΔExon8 mice; experiment: Place learning in the water-maze (spatial reference memory); format: in vivo
Protocol: as §1
Place learning in the water-maze: Spatial reference memory was analyzed using a water-maze procedure. A transparent Plexiglas non-slippery platform (Ø 10 cm) was immersed in a circular pool (Ø 140 cm, height 40 cm), under the water surface during acquisition. The water temperature, 23 ± 1°C, light intensity, external cues in the room, and water opacity were rigorously reproduced. Swimming was videotracked (Viewpoint), with trajectories being analyzed as latencies and distances. The software divided the pool into four quadrants. Training consisted in three swims per day for 6 days, with 15 min intertrial-time interval. Start positions, set at each limit between quadrants, were randomly selected and each mouse was allowed a 90 s swim to find the platform, initially placed in the NE quadrant. […] The median latency and swim path length were calculated for each training day. Acquisition slopes were also calculated individually over the acquisition period. Forty-eight hours after the last swim, on day 7, a probe test was performed during which the platform was removed and each animal allowed a free 60 s swim. The time spent in the training (T) quadrant and the average of time spent in the 3 others (o) were determined. On days 8, mice were re-tested in the water-maze for assessing visual ability and non-spatial learning. They were submitted to the acquisition of a visible platform placed in a new location, with training consisting in three swims per day with 15 min intertrial-time interval. Swimming was analyzed as latencies. No exclusion criterion has been set in this test.

[4] = tested on: Wfs1^ΔExon8 mice; experiment: Step-through type passive avoidance test (non-spatial long-term memory); format: in vivo; conditions: male Wfs1^ΔExon8 mice, 0.3 mg/kg ip 30 min before training, retention
Description: as §1
Step-through type passive avoidance test: The test measures non-spatial long-term memory. The apparatus is a two-compartments (15 × 20 × 15 cm high) box with one illuminated with white polyvinylchloride walls and the other darkened with black polyvinylchloride walls and a grid floor. A guillotine door separates each compartment. A 60 W lamp positioned 40 cm above the apparatus lights up the white compartment during the experiment. Scrambled foot shocks (0.3 mA for 3 s) could be delivered to the grid floor using a shock generator scrambler (Lafayette Instruments, Lafayette, USA). The guillotine door was initially closed during the training session. Each mouse was placed into the white compartment. After 5 s, the door was raised. […] The step-through latency, that is, the latency spent to enter the darkened compartment, and the shock sensitivity (estimated as 0 = no reaction, 1 = flinching reactions, 2 = flinchings and vocalizations) were recorded. […] The step-through latency and escape latency (corresponding to the time spent to exit the dark compartment) were recorded up to 300 s each. […]

[5] = tested on: Wfs1^ΔExon8 mice; experiment: Black-and-white exploration box test (anxiety); format: in vivo; conditions: female Wfs1^ΔExon8 mice, 0.3 mg/kg ip 30 min before
Description: as §1
Black-and-white exploration box test: Anxiety level of WFS1 KO mice was first examined using the black-and-white exploration box. It consisted of two adjacent compartments (23 × 16 × 10 cm^3) separated by a small opening (6 × 6 cm^2). The light compartment is brightly lit from above and covered with a transparent lid, and the dark compartment is covered with a black lid. Mice were placed in the light box, and exploration measured during 10 min by IR videotracking (Viewpoint). The time spent in each compartment and number of crossings among compartments were recorded. The time in the light compartment per visit was calculated. […] Seven animals were discarded accordingly corresponding to 14% attrition.
(§2) Experimental series: For phenotyping, animals were tested in series in the different behavioral tests assessing activity, learning and memory or anxiety, finishing with the most stressful procedures: (1) open-field (1 day), (2) spontaneous alternation (1 day), (3) object recognition (2 days), (4) place learning in the water-maze water-maze (5+2 days), (5) passive avoidance (2 days), (6) elevated plus-maze (1 day), and (7) black-and-white box exploration (1 day), in that order and over 16 days. For PRE-084 treatment experiments, animals were tested in series on a limited number of tests: spontaneous alternation (1 day), object recognition (2 days) and passive avoidance (2 days) for males, elevated plus-maze (1 day) and black-and-white box (1 day) for females.

[6] = tested on: Wfs1^ΔExon8 mice; experiment: Elevated plus-maze test (anxiety); format: in vivo; conditions: female Wfs1^ΔExon8 mice, 0.3 mg/kg ip 30 min before
Description: as §1
Elevated plus-maze test: The apparatus consisted of two open arms (24 × 8 cm^2), in white PVC, and two enclosed arms (24 × 8 × 20 cm^3), in dark grey PVC. The arms extended from a central platform (8 × 8 cm), and the maze was elevated to a height of 50 cm above the floor. Each mouse was placed at the centre of the plus-maze and its exploration behaviour was recorded during 10 min. The time spent and numbers of entries into the enclosed or open arms were recorded. Results were expressed as total number of entries into the arms, time spent in the open arms, time spent per visit in the open arms.
as §2

[7] = tested on: Wfs1ab^KO larvae; experiment: Visual Motor Response (VMR), locomotor activity of larvae during light OFF periods; format: in vivo, zebrafish; conditions: Fig. 9
Protocol: Zebrafish Generation: All experiments were performed in accordance with the 2010/63/EU Directive and the ARRIVE guidelines. Zebrafish were purchased at the KIT - European Zebrafish Resource Center. Heterozygous Wfs1a^C799X and Wfs1b^W493X mutant line were maintained in an automated fish tank system (ZebTEC, Tecniplast) at 28°C, pH 7, conductivity around 500 µS and with a 14h:10h light:dark cycle. They were fed with standard diet. Heterozygous Wfs1a^C799X/+ zebrafish were crossed to generate wild-type (Wfs1a^WT) and homozygous mutant Wfs1a^C799X zebrafish (Wfs1a^C799X), which became progenitors in order to generate future generations for the experiments. […]
Visual Motor Response (VMR): The VMR assay quantifies the locomotor activity of zebrafish larvae to light changes using infrared tracking system. […] At 5-dpf, the locomotor behavior of larvae was monitored by using an automated videotracking device (Zebrabox®, ViewPoint) by employing a DinionXF 1/3-inch Monochrome camera (model BFLY-PGE-13H2M, FLIR) fitted with a fixed-angle megapixel lens (SR5014MP-5C, SEIKO Optical). […] The floor of the box emitted by a light-controlling unit a white light (69-83 µW/cm2 measured at 495 λ). The response to stimuli was recorded by an infra-red (IR) camera (25 frames/s) under IR light illumination at 850 nm, which the animals could not perceive. […] The distance covered was measured in mm/s. […]

## O=C(OCCN1CCOCC1)C1(c2ccccc2)CCCCC1 [PRE-084, 2-(4-morpholinethyl)-1-phenylcyclohexanecarboxylate hydrochloride]
[1]
  spontaneous alternation: very significant recovery of spontaneous alternation
[2]; 0.3 mg/kg ip 30 min before session with two identical objects, Fig. 3a
  object exploration during session 2: failed to affect object exploration
[2]; 0.3 mg/kg ip, Fig. 3b
  exploration for the novel object in session 3: attenuated the deficit of exploration for the novel object
[3]; male Wfs1^ΔExon8 mice, compared to V-treated Wfs1^WT mice, Fig. 4c
  acquisition slopes: only vehicle (V)-treated Wfs1^ΔExon8 mice showed a statistically significant decrease
[3]; male Wfs1^ΔExon8 mice, daily injection 0.3 mg/kg ip 30 min before 1st swim of each training trial, Fig. 4b
  delay in acquisition / swimming latencies: prevented this delay and significantly decreased swimming latencies during the two last trials
[3]; male mice, 60-s swim without platform, Fig. 4d
  probe test, exploration of the T quadrant: no impact of the PRE-084 was noted
[4]; Fig. 5b
  escape latency: significantly reduced
[4]; compared to V-treated Wfs1^WT mice, Fig. 5a
  step-through latency deficit: very significant for V-treated Wfs1^ΔExon8 mice but not for PRE-084-treated Wfs1^ΔExon8 mice
[5]; Fig. 6a
  number of crossing: slightly reduced
[5]; Fig. 6b
  time spent in the light compartment: increased up to the levels of Wfs1^WT mice
[5]; Fig. 6c
  time per visit (light compartment): increased up to the levels of Wfs1^WT mice
[6]; Fig. 7a
  maze exploration (total number of arm entries): no impact was noted
[6]; Fig. 7b
  time spent in open arms: slightly increased
[6]; Fig. 7c
  time per visit in open arms: significantly increased
[7]; at 3 and 10 µM in the bath
  hyperlocomotor response: down to the WT line mobility
[7]; between 0.1 and 10 µM in the bath, 4 dpf to 5 dpf
  hyperlocomotor response: concentration-dependent decrease of the hyperlocomotor response
